We go through 27 compounds from PubChem BioAssay (NCI).

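Protocol summary: plate cells (96-well), add compound at 5 concentrations, incubate 48 h, interpolate endpoints linearly. GI50 = concentration required for 50% inhibition of growth. TGI marks complete inhibition of growth.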

In one test the test system is LOX IMVI melanoma. Description: growth of human tumour cells (NCI), 48 h.
As to `CSc1cc(Cl)c(C)cc1S(=O)(=O)NC(=O)NNc1ccc(Cl)cc1`, the TGI was > 100 µM.
The same measure, in the same setting: as for `CCOC(=O)NC(=S)NN(C)C1=NCC(C)(C)S1`, the figure is > 100 µM.
On to `O=c1c2cc3c(cc2[nH]c2ncccc12)OCO3`, for which the TGI was > 10 µM.

In the next test the test system is UO-31 renal. As to the kind of experiment: growth of human tumour cells (NCI), 48 h.
Take `CS(=O)(=O)OCCn1c(=O)n(CCOS(C)(=O)=O)c(=O)n(CCOS(C)(=O)=O)c1=O`: the TGI was > 100 µM.
`O=P(c1ccccc1)(c1ccccc1)N1O[C@@H](c2ccccc2)C=C[C@H]1c1ccccc1`: the TGI was found to be 17.3 µM.
As for `CC(C)(C)NC(=O)/C(=C\Sc1ccccc1)c1ccc2c(c1)OCO2`, the TGI was > 100 µM.
For the compound `COc1nc(C#CCC(C)O)nc(OC)n1` (configuration not stated), the TGI worked out at 37.8 µM.
`COC(=O)[C@]12CC[C@H]3CN(C(=O)OCc4ccccc4)[C@H]([C@H]31)[C@H](c1ccco1)N2S(=O)(=O)c1ccc(C)cc1` displayed a TGI of 46.6 µM.
On the same count and under the same terms, as for `Cc1c2c(n(CCc3ccc(Cl)cc3)c1C)NN=C(C#N)S2(=O)=O`, the figure is > 100 µM.
For `CCN(C(=S)N[C@@H](Cc1ccccc1)C(=O)N[C@@H](CC(C)C)C(=O)OC)c1ccccc1`, the TGI is > 100 µM.
Compound `CCCn1c(CN(Cc2nc3ccccc3n2CCC)Cc2nc3ccccc3n2CCC)nc2ccccc21` had a TGI of 34.3 µM.
Same read-out and setting: as for `CSc1c(C#N)c(N)n2c1C(=O)N(c1ccccc1)C2=S`, the figure is > 100 µM.
In the case of `COc1ccc2cc(-c3ccc(-c4ccc(C(=N)N)s4)s3)ccc2c1`, the GI50 was 2.88 µM and the TGI turned out to be 9.72 µM.
As to `N#CCCN(CCC#N)c1ccc(/C=C2\N=C(c3ccccc3)N(c3ccc(Cl)cc3)C2=O)cc1`, the TGI is > 100 µM.
Regarding `Cc1c(S(=O)(=O)/N=C(\N)Nc2ccc(Cl)cc2)sc2ccc(Cl)cc12`, the TGI came to 35.9 µM.
Take `NNC(=O)c1ccc[n+](CCc2ccccc2)c1`: the TGI is > 100 µM.
Turning to `CC(=O)N/N=C1\NC(=O)C[C@H]2[C@@H]3CC=C4C[C@@H](OC(C)=O)CC[C@]4(C)[C@H]3CC[C@]12C`, the TGI is > 100 µM.
Still for that read-out and setting: the same measure for `C=C[C@@H]1C(CO)=CCC2[C@H]1CCC1C(C)(C)C(=O)CC[C@]21C` (some centres not stated): > 100 µM; for `COc1ccc2cc3c4cc5c(cc4cc[n+]3cc2c1OC)OCO5`: > 100 µM; for `CCN(CCO)CC1COc2ccccc2O1` (configuration not stated): > 100 µM.
Turning to `COc1ccc2nc3cc(Cl)ccc3c(NCCCNCCCNc3c4ccc(Cl)cc4nc4ccc(OC)cc34)c2c1`, the TGI is 0.989 µM.
On the same count and under the same terms, the same measure for `C/C(CC1C2CCCC1C2)=N\NC(N)=O` (configuration not stated): > 100 µM; for `N#CC(C#N)=CNC(=S)c1ccncc1`: 52.8 µM.
`Clc1ccc(-c2nn3c(-c4ccncc4)nnc3s2)cc1`: the TGI was > 100 µM.
On the same count and under the same terms, as for `O=C1/C(=C\c2cccc(Oc3ccccc3)c2)S(=O)(=O)C(c2ccccc2)N1Cc1ccccc1` (configuration not stated), the figure is 47.9 µM.
As to `COc1ccc(C#CC(=O)O)c(OC)c1`, the TGI was > 100 µM.
`CCOC(=O)NC(=S)NN(C)C1=NCC(C)(C)S1`: the TGI was > 100 µM.

The subject of the next test is DU-145 prostate. As to the kind of experiment: growth of human tumour cells (NCI), 48 h.
For the compound `CS(=O)(=O)OCCn1c(=O)n(CCOS(C)(=O)=O)c(=O)n(CCOS(C)(=O)=O)c1=O`, the TGI was > 100 µM.
As to `O=P(c1ccccc1)(c1ccccc1)N1O[C@@H](c2ccccc2)C=C[C@H]1c1ccccc1`, the TGI worked out at 26.3 µM.
For the compound `CC(C)(C)NC(=O)/C(=C\Sc1ccccc1)c1ccc2c(c1)OCO2`, the TGI is > 100 µM.
`COc1nc(C#CCC(C)O)nc(OC)n1` (configuration not stated): the TGI stood at 52.8 µM.
On to `COC(=O)[C@]12CC[C@H]3CN(C(=O)OCc4ccccc4)[C@H]([C@H]31)[C@H](c1ccco1)N2S(=O)(=O)c1ccc(C)cc1`, for which the TGI is > 100 µM.
Consider `Cc1c2c(n(CCc3ccc(Cl)cc3)c1C)NN=C(C#N)S2(=O)=O`, for which the TGI is > 100 µM.
Take `CCN(C(=S)N[C@@H](Cc1ccccc1)C(=O)N[C@@H](CC(C)C)C(=O)OC)c1ccccc1`: the TGI was > 100 µM.
For the compound `CCCn1c(CN(Cc2nc3ccccc3n2CCC)Cc2nc3ccccc3n2CCC)nc2ccccc21`, the TGI is > 88.5 µM.
As to `CSc1c(C#N)c(N)n2c1C(=O)N(c1ccccc1)C2=S`, the TGI was > 100 µM.
In the case of `COc1ccc2cc(-c3ccc(-c4ccc(C(=N)N)s4)s3)ccc2c1`, the GI50 is 1.7 µM and the TGI is 3.32 µM.
In the case of `N#CCCN(CCC#N)c1ccc(/C=C2\N=C(c3ccccc3)N(c3ccc(Cl)cc3)C2=O)cc1`, the TGI was > 100 µM.
In turn, `Cc1c(S(=O)(=O)/N=C(\N)Nc2ccc(Cl)cc2)sc2ccc(Cl)cc12` returned a TGI of 36.2 µM.
As for `NNC(=O)c1ccc[n+](CCc2ccccc2)c1`, the TGI is > 100 µM.
In the case of `CC(=O)N/N=C1\NC(=O)C[C@H]2[C@@H]3CC=C4C[C@@H](OC(C)=O)CC[C@]4(C)[C@H]3CC[C@]12C`, the TGI is > 100 µM.
On to `C=C[C@@H]1C(CO)=CCC2[C@H]1CCC1C(C)(C)C(=O)CC[C@]21C` (some centres not stated), for which the TGI was > 100 µM.
Consider `COc1ccc2cc3c4cc5c(cc4cc[n+]3cc2c1OC)OCO5`, for which the TGI is > 100 µM.
Take `CCN(CCO)CC1COc2ccccc2O1` (configuration not stated): the TGI is > 100 µM.
As to `COc1ccc2nc3cc(Cl)ccc3c(NCCCNCCCNc3c4ccc(Cl)cc4nc4ccc(OC)cc34)c2c1`, the TGI is 0.156 µM.
Same read-out and setting: as for `C/C(CC1C2CCCC1C2)=N\NC(N)=O` (configuration not stated), the figure is > 100 µM; as for `N#CC(C#N)=CNC(=S)c1ccncc1`, > 100 µM; as for `Clc1ccc(-c2nn3c(-c4ccncc4)nnc3s2)cc1`, > 100 µM.
With `O=C1/C(=C\c2cccc(Oc3ccccc3)c2)S(=O)(=O)C(c2ccccc2)N1Cc1ccccc1` (configuration not stated), the TGI is 74 µM.
On to `CCN(CC)CCOc1ccc(N2C(=O)c3cc(OC)c(OC)cc3C2=O)cc1`, for which the TGI was > 100 µM.
On to `COc1ccc(C#CC(=O)O)c(OC)c1`, for which the TGI was > 100 µM.
As to `CSc1cc(Cl)c(C)cc1S(=O)(=O)NC(=O)NNc1ccc(Cl)cc1`, the TGI was > 100 µM.
Regarding `CCOC(=O)NC(=S)NN(C)C1=NCC(C)(C)S1`, the TGI is > 100 µM.
For the compound `O=c1c2cc3c(cc2[nH]c2ncccc12)OCO3`, the TGI was > 10 µM.

The subject of another test is TK-10 renal. Description: growth of human tumour cells (NCI), 48 h.
As to `CS(=O)(=O)OCCn1c(=O)n(CCOS(C)(=O)=O)c(=O)n(CCOS(C)(=O)=O)c1=O`, the TGI was > 100 µM.
The same measure, in the same setting: as for `O=P(c1ccccc1)(c1ccccc1)N1O[C@@H](c2ccccc2)C=C[C@H]1c1ccccc1`, the figure is 27.8 µM; as for `CC(C)(C)NC(=O)/C(=C\Sc1ccccc1)c1ccc2c(c1)OCO2`, > 100 µM; as for `COc1nc(C#CCC(C)O)nc(OC)n1` (configuration not stated), 57.7 µM.
Same read-out and setting: the same measure for `COC(=O)[C@]12CC[C@H]3CN(C(=O)OCc4ccccc4)[C@H]([C@H]31)[C@H](c1ccco1)N2S(=O)(=O)c1ccc(C)cc1`: 90.2 µM; for `Cc1c2c(n(CCc3ccc(Cl)cc3)c1C)NN=C(C#N)S2(=O)=O`: > 100 µM; for `CCN(C(=S)N[C@@H](Cc1ccccc1)C(=O)N[C@@H](CC(C)C)C(=O)OC)c1ccccc1`: > 100 µM.
Regarding `CCCn1c(CN(Cc2nc3ccccc3n2CCC)Cc2nc3ccccc3n2CCC)nc2ccccc21`, the TGI was > 100 µM.
Still for that read-out and setting: the same measure for `CSc1c(C#N)c(N)n2c1C(=O)N(c1ccccc1)C2=S`: > 100 µM.
In the case of `COc1ccc2cc(-c3ccc(-c4ccc(C(=N)N)s4)s3)ccc2c1`, the GI50 is 14.2 µM and the TGI is 29.2 µM.
